Data reported in patent US4835157A, “Thieno- and furopyrimidine-2,4-dione piperidine derivatives as serotonin antagonists and alpha adrenergic blocking agents” (Ortho Pharmaceutical Corporation, priority 1988, dated 1989).
Like-named read-outs stand apart in the source and are kept apart here.

Key:
[1] = molecular target: T1, 5HT2 (Rattus norvegicus, UniProt P14842); test: Brain Serotonin (5-HT2) Radioreceptor Assay (3H-ketanserin displacement, rat frontal cortex membranes); type: binding; design: dissected from brains obtained from female rats; from tissue; host or cells: frontal cortex of female rats (about 150 g), membrane fragments; details: 15 min at 37° C
Protocol: Brain Serotonin (5-HT2) Radioreceptor Assay
The test objects of this Example were rat frontal cortex membranes. Mebrane fragments were prepared from the frontal cortex dissected from brains obtained from female rats (≈150 g). […] Compound bound to the receptor site was separated from the remaining unbound compound by vacuum filtration. […] Specific binding was determined by the difference between total counts bound and counts bound in the presence of 10^-6 M methysergide.

[2] = test system: serotonin-induced platelet aggregation; test: Platelet Aggregation Assay (serotonin-induced); type: cell-based; details: Platelet; human plasma, serotonin 5 μM
Protocol: Platelet Aggegation Assay
Human blood was collected into tubes containing sodium citrate. The plasma was separated by centrifugation and was used as the source of platelets. Serotonin (5 μM) was used as the agonist to induce platelet aggregation. A control aggregation curve (as measured by the decrease in absorbance in transmitted light) was obtained in the presence of serotonin and in the absence of test compound. The test compound was added to an identical sample in a cuvette for one minute before addition of serotonin to yield the experimental curve.

[3] = test system: Serotonin-Induced Smooth Muscle Contractions (rabbit thoracic aorta); test: Inhibition of Serotonin-Induced Smooth Muscle Contractions (isolated thoracic aorta strips); type: cell-based; details: Oryctolagus cuniculus, 10 min, concentration shifting the serotonin dose curve 10x to the right, 10 min preincubation, read-out: 5-HT-Induced Smooth Muscle Contraction DR10
Protocol: Inhibition of Serotonin-Induced Smooth Muscle Contractions
The test objects of this Example were canines and rabbits. Rabbits were sacrificed by T-61 injection and the thoracic aorta was removed immediately. The aorta was placed in warmed, oxygenated Krebs-Henseleit buffer. After the tissue was cleaned, a 2-3 mm wide strip was cut helically from each aorta. A strip of approximately 5 cm was suspended in Krebs-Henseleit buffer at 37° C. in a 25 ml tissue bath and the tissues equilibrated at an initial resting tension of 4 g for 90-120 minutes. An initial serotonin dose curve, 0.01-10 μM was then done on each tissue, followed by a 60 minute washout and reequilibration. The test drug was then added for a 10 minute preincubation and another serotonin dose curve was done using 0.01-100 μM.
Results are expressed as DR10 values. This is the concentration of the compound required to shift the serotonin dose curve 10x to the right, i.e., the concentration of antagonist at which the concentration of serotonin required for 50% maximal contraction is increased ten-fold.

[4] = molecular target: T1, 5HT2; test: 5HT2 Blockade in vivo (antagonism of 5HT induced pressor responses); design: Spontaneously hypertensive rats were anesthetized with sodium pentobarbital; from tissue; host or cells: whole animal: anesthetized spontaneously hypertensive rats (vasculature); species or system spontaneously hypertensive rats; details: for ED50: rat, iv, read-out: 5-HT-Induced Pressor Response ED50
Protocol: Antagonism of 5HT induced pressor responses was used to assess 5HT2 blockade in vivo. Spontaneously hypertensive rats were anesthetized with sodium pentobarbital (50 mg/kg, i.p.). The right carotid artery and vein were cannulated for pressure recording and drug injection, respectively. The trachea was cannulated, the rat placed on a respirator and ventilated with room air at 50-60 breaths/minute. Rats were pretreated with prazosin hydrochloride (1 mg/kg, i.v., blous) and pentolinium tartrate (5 mg/kg, i.v., bolus). After 10 minutes equilibration, the rat was challenged with 5HT (100 μg/kg) which elevates mean arterial pressure (MAP) 60-100 mmHg; non-responsive rats were discarded.
After a baseline had been reestablished, bolus injections of 5HT (100 μg/kg, i.v.) were given and the MAP responses were evaluated both pre- and post-drug administration. 5HT challenges were repeated 10 minutes after each dose of antagonist. Up to three cumulative doses of the antagonist were given to a single animal.

[5] = molecular target: T2, 5HT1A receptor (Rattus norvegicus, UniProt P19327); test: Brain Serotonin (5HT1A) radioreceptor Assay (3H-8-OH DPAT displacement, rat frontal cortex membranes); type: binding; details: for IC50: rat frontal cortex membranes, pH 7.4, read-out: Brain 5-HT1 Receptor IC50
T2 construct: Membrane fragments were prepared from prefrontal cortex; from tissue; host or cells: prefrontal/frontal cortex of female rats (about 150 g), membrane fragments
T2 sequence (P19327 1-422): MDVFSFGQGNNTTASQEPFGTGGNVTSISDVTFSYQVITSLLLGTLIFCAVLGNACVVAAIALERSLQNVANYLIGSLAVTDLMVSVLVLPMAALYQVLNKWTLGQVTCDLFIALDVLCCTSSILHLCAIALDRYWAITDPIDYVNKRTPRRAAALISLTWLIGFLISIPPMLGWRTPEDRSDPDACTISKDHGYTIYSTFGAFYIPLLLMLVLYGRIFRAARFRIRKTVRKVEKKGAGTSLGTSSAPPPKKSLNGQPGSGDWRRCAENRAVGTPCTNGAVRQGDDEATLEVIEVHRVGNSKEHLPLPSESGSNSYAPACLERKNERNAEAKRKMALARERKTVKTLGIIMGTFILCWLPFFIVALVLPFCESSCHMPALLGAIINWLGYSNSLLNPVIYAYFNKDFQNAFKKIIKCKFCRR
Protocol: Brain Serotonin (5HT1A) radioreceptor Assay
The text objects of this procedure were rat frontal cortex membranes. Membrane fragments were prepared from prefrontal cortex disected from brains obtained from female rats (≈150 g). The 5HT1A sites were labeled with ^3 H-8-OH dipropylaminotetralin (8-OH-DPAT). Membrane fragments, ^3 H-8-OH DPAT, TRIS buffer (pH 7.4) and unlabeled compound were incubated for 10 minutes at 37° C. and then for 10 minutes at 4° C. Separation of bound from unbound ^3 H-8-OH DPAT was performed by vacuum filtration on a glass fiber disc. The ability of a compound to compete with ^3 H-8-OH DPAT for binding sites is a measure of the affinity of the compound for the 5HT1A receptor. Specific binding was determined by the difference between total counts bound and the counts bound in the presence of […] 5-hydroxytryptamine.

[6] = test system: serotonin receptors; test: Inhibition of 5-HTP-Induced Head Twitching; type: in vivo; details: male CD1 mice; for Inhibit. of 5-HTP-Head Twitch (result in words): @ 10 (mg/kg, p.o.); for Inhibit. of 5-HTP-Head Twitch ED50: 5-HTP 160 mg/kg i.v. after one hour
Protocol: Inhibition of 5-HTP-Induced Head Twitching
This test detects compounds with antagonistic activity of serotonin receptors in vivo, and is a modified procedure of Corne, Pickering and Warner, Brit. J. Pharmacol. 20, 106 (1963). Groups of male CD1 mice were fasted overnight but allowed water ad libitum. They were deprived of water during the course of the experiment. The mice were weighed and treated orally or parenterally with the test compound in a dose volume of 10 ml/kg. Doses of test substance were calculated based upon the active compound. Substances for oral administration were dissolved or suspended in a 0.5% aqueous methylcellulose (15 centipoises) vehicle containing 4 ml of Tween 80/l.
A dose of 160 mg/kg of L-5-hydroxytryptophan (5-HTP) was administered i.v. in a dose volume of 5 ml/kg after one hour. The test mouse was restrained in a rodent restrainer that allowed the tail to extend out the back. The tail was then placed in tepid (but not scalding) water for approximately 10 seconds to soften the skin and dilate the tail vein. A 1 ml syringe and 25 gauge (5/8 inch) needle was used to administer the 5-HTP solution into one of the lateral tail veins.
A timer was started after dosing with 5-HTP to the first animal of the test group. […] A head twitch involves the head, neck and ears and has the appearance of an exaggerated pinal reflex. The number of head twitches for each individual vehicle-treated mouse were recorded to establish a historical baseline.
The active compounds in the test block the twitch response (the response rated all or none).

[7] = test system: alpha1 adrenergic receptor; test: Alpha1 Blockade in vivo (inhibition of phenylephrine pressor response); design: species or system spontaneously hypertensive rats (SHR); details: anesthetized, vagotomized SHR; i.v.
Protocol: The potency of these compounds as alpha1 adrenergic antagonists was determined using the following procedure: adult male spontaneously hypertensive rats (SHR) were anesthetized and bilaterally vagotomized. A carotid artery and jugular vein were cannulated for monitoring mean arterial blood pressure and drug administration, respectively. The percent inhibition of alpha1 adrenergic receptor activation was quantified by measuring pressor responses to phenylephrine before and after antagonist treatment. […] Compounds were tested to the limits of their solubility for intravenous administration.

[8] = @ 1 μM, 3H-8-OH DPAT, read-out: Brain 5-HT1 Receptor % displaced (% inhibition)

T1 sequence (P14842 whole entry, the tested form may be a part): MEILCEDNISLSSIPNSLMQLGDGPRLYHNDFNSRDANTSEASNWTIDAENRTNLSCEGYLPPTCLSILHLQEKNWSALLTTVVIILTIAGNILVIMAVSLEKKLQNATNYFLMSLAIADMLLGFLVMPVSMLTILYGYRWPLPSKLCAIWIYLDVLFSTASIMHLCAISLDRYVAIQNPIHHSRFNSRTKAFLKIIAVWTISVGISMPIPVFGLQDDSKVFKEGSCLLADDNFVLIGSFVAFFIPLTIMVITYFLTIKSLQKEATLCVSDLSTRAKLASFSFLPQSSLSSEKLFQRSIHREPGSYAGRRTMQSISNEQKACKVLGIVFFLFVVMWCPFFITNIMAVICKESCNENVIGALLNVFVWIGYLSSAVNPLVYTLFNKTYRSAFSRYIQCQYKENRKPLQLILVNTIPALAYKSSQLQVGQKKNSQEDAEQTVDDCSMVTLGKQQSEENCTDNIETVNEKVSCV

Compound | IC50 [1] [nM] | IC50 [2] [nM] | IC (10-fold shift) [3] [µM] | ED50 [4] [mg/kg] | inhibition at 1 µM [5, 8] [%] | Inhibit. of 5-HTP-Head Twitch (result in words) [6] | Inhibit. of 5-HTP-Head Twitch ED50 [6] | further results
CC(C)(C)C(=O)n1c(=O)n(CCN2CCC(=C(c3ccc(F)cc3)c3ccc(F)cc3)CC2)c(=O)c2cscc21 [Example 7, 3-[2-[4-[Bis(4-fluorophenyl)methylene]piperidin-1-yl]ethyl]-1-(2,2-dimethyl-1-oxopropyl)thieno[3,4-d]pyrimidine-2,4-dione] | 0.31 | 2500 | 0.02 | 0.038 | 3 |  |  | 
CCCCn1c(=O)n(CCN2CCC(C(=O)c3ccc(F)cc3)CC2)c(=O)c2ccsc21 [Example 18, 1-Butyl-3-[2-[4-(4-fluorobenzoyl)piperidin-1-yl]ethyl]thieno[2,3-d]pyrimidine-2,4-dione] | 23 |  |  |  | 17 | Inact. |  | 
CCCCn1c(=O)n(CCN2CCC(C(=O)c3ccc(F)cc3)CC2)c(=O)c2cscc21 [Example 15, 1-Butyl-3-[2-[4-(4-fluorobenzoyl)piperidin-1-yl]ethyl]thieno[3,4-d]pyrimidine-2,4-dione 1/4 Hydrate] | 450 |  |  |  | 0 |  | 1-10 mg/kg, p.o. | 
O=c1[nH]c2cscc2c(=O)n1CCCCCN1CCC(=C(c2ccc(F)cc2)c2ccc(F)cc2)CC1 [Example 20, 3-[5-[4-[Bis(4-fluorophenyl)methylene]piperidin-1-yl]pentyl]thieno[3,4-d]pyrimidine-2,4-dione] | 650 | 300 | 0.085 |  |  |  |  | IC50 ([5]; 3H-8-OH DPAT): 270 nM
O=C(c1ccccc1)n1c(=O)n(CCN2CCC(=C(c3ccc(F)cc3)c3ccc(F)cc3)CC2)c(=O)c2cscc21 [Example 8] | 200 |  | 0.01 | 0.038 | 0 | Inact. |  | 
CC(C)(C)C(=O)n1c(=O)n(CCN2CCC(C(=O)c3ccc(F)cc3)CC2)c(=O)c2cscc21 [Example 13] | 15 |  | 0.03 |  | 31 |  | 1.98 mg/kg, p.o. | 
Cc1scc2[nH]c(=O)n(CCN3CCC(C(=O)c4ccc(F)cc4)CC3)c(=O)c12 [Example 16, 3-[2-[4-(4-Fluorobenzoyl)piperidin-1-yl]ethyl]-5-methylthieno[3,4-d]pyrimidine-2,4-dione] | 7 | 380 | 0.019 | 0.119 | 2 |  |  | 
O=c1[nH]c2cscc2c(=O)n1CCN1CC=C(c2ccccc2)CC1 [Example 24, 3-[2-[4-Phenyl-1,2,3,6-tetrahydropyridin-1-yl]ethyl]thieno[3,4-dy]pyrimidine-2,4-dione] | 29 |  |  |  |  | Inact. |  | inhibition at 1 µM ([5]; read-out: Brain 5-HT1 Receptor % displaced (% inhibition)): 53%
O=C(c1ccc(F)cc1)C1CCN(CCn2c(=O)c3cscc3n(C(=O)c3ccccc3)c2=O)CC1 [Example 12, 1-Benzoyl-3-[2-[4-(4-fluorobenzoyl)piperidin-1-yl]ethyl]thieno[3,4-d]pyrimidine-2,4-dione] | 8.5 | 100 |  |  | 24 |  | 1.74 mg/kg, p.o. | 5-HT-Induced Pressor Response, % attenuation ([4]; @ 0.3 (mg/kg), anesthetized SHR, 5HT 100 μg/kg i.v.): 44%
O=C(c1ccc(F)cc1)C1CCN(CCn2c(=O)[nH]c3sccc3c2=O)CC1 [Example 2, 3-[2-[4-(4-Fluorobenzoyl)piperidin-1-yl]ethyl]thieno[2,3-d]pyrimidine-2,4-dione] | 1.6 |  |  | 0.016 |  |  | 0.26 mg/kg, p.o. | Phenylephrine-Induced Pressor Response ED50 [7]: < 3.0 mg/kg; inhibition at 10 µM ([5]; @ 10 μM, 3H-8-OH DPAT, read-out: Brain 5-HT1 Receptor % displaced (% inhibition)): 24%
Cc1scc2[nH]c(=O)n(CCN3CCC(=C(c4ccc(F)cc4)c4ccc(F)cc4)CC3)c(=O)c12 [Example 17] | 32 |  |  |  | 0 | Inact. |  | 
Cn1c(=O)n(CCN2CCC(=C(c3ccc(F)cc3)c3ccc(F)cc3)CC2)c(=O)c2cscc21 [Example 23] | 1.8 | 17000 | 0.066 | > 0.3 |  |  |  | IC50 ([5]; 3H-8-OH DPAT): 3000 nM
O=C(c1ccc(F)cc1)C1CCN(CCCCn2c(=O)[nH]c3cscc3c2=O)CC1 [Example 19, 3-[4-[4-(4-Fluorobenzoyl)piperidin-1-yl]butyl]thieno[3,4-d]pyrimidine-2,4-dione] | 12.5 |  |  |  |  |  | 1-10 mg/kg, p.o. | IC50 ([5]; 3H-8-OH DPAT): 210 nM
